Results taken from patent US20230416237A1, “AMIDE COMPOUND, PHARMACEUTICAL COMPOSITION AND USE THEREOF” (SHENZHEN BO LI JIAN MEDICINE CO., LTD., priority 2020, published 2023).

Key:
JAK2 = JAK2 (Homo sapiens (Human), UniProt O60674); assay: JAK2 inhibitory activity, mobility shift assay, 1 mM ATP; format: biochemical; details: Table 7
Protocol: (§1) The JAK1 inhibitory activity and the JAK2 inhibitory activity of the amide compounds provided in the above examples were tested by the method below.
(§2) Specific steps are described below. • 1. A 1× Kinase buffer was formulated. • 2. Concentration gradients of the compound were formulated: a test compound with an initial concentration of 10000 nM (JAK1) or 30000 nM (JAK2) was diluted in a 384-well plate to a 100% DMSO solution with a 100-fold final concentration, wherein the compound was diluted by a fold of 3 to 10 concentrations. 250 nL of the compound with the 100-fold final concentration was transferred with a dispenser Echo 550 to the target plate. • 3. A kinase solution with a 2.5-fold final concentration was prepared with the 1× Kinase buffer. • 4. […] The plate was centrifuged at 1000 rpm for 30 s, shaken and uniformly mixed, and incubated for 10 min at room temperature. • 6. A mixed solution of ATP (the final concentration of ATP=1 mM) and Kinase substrate with a 5/3-fold final concentration was formulated with the 1× Kinase buffer. • 7. 15 μL of the mixed solution of ATP and the substrate with the 5/3-fold final concentration was added to initiate the reaction. • 8. The 384-well plate was centrifuged at 1000 rpm for 30 s, shaken and uniformly mixed, and incubated for respective times at room temperature. • 9. The kinase reaction was stopped by adding 30 μL of a detection termination solution, and the plate was centrifuged at 1000 rpm for 30 s and shaken and uniformly mixed. • 10. The conversion rate was read with Caliper EZ Reader and the half maximal inhibitory concentration (IC50) was calculated.

JAK1 = JAK1 (Homo sapiens (Human), UniProt P23458); assay: JAK1 inhibitory activity, mobility shift assay, 1 mM ATP; format: biochemical; details: 1 mM ATP; Table 7
Protocol: as §1, §2

Sequence of JAK2 (O60674 826-1132): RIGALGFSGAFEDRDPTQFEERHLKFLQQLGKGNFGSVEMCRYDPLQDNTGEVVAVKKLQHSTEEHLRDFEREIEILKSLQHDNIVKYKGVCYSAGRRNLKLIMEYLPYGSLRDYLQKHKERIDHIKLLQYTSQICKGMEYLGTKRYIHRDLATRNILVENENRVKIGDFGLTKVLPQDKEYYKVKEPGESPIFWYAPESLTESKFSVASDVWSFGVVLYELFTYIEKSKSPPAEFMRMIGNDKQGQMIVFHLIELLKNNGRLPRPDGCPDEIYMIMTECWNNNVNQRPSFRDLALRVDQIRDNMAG
Sequence of JAK1 (P23458 850-1154): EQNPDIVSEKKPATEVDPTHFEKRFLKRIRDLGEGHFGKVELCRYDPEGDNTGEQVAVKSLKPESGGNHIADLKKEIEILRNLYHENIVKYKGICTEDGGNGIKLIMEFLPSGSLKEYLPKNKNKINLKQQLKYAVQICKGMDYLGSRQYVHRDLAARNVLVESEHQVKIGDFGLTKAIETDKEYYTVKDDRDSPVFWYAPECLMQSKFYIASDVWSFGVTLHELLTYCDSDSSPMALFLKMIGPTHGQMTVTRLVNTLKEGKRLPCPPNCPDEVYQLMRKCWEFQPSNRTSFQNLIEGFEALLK

IC50 (JAK2) | IC50 (JAK1) | SMILES
4300 nM | 55 nM | COc1nn(C)cc1Nc1ncc(F)c(-c2c[nH]c3c(NC(=O)[C@H]4CCCN4C4CCNCC4)cccc23)n1 [Example 5, (R)—N-(3-(5-fluoro-2-((3-methoxy-1-methyl-1H-pyrazol-4-yl)amino)pyrimidin-4-yl)-1H-indol-7-yl)-1-(piperidin-4-yl)pyrrolidine-2-carboxamide]
14600 nM | 104 nM | COc1nn(C)cc1Nc1ncc(F)c(-c2c[nH]c3c(NC(=O)[C@H]4CCCN4C4CCN(C)CC4)cccc23)n1 [Example 10, (R)-N-(3-(5-fluoro-2-((3-methoxy-1-methyl-1H-pyrazol-4-yl)amino)pyrimidin-4-yl)-1H-indol-7-yl)-1-(1-methylpiperidin-4-yl)pyrrolidine-2-carboxamide]
12100 nM | 69 nM | COc1nn(C)cc1Nc1ncc(C)c(-c2c[nH]c3c(NC(=O)[C@H]4CCCN4C4CCN(C)CC4)cccc23)n1 [Example 11, (R)-N-(3-(2-((3-methoxy-1-methyl-1H-pyrazol-4-yl)amino)-5-methylpyrimidin-4-yl)-1H-indol-7-yl)-1-(1-methylpiperidin-4-yl)pyrrolidine-2-carboxamide]
14500 nM | 101 nM | COc1nn(C)cc1Nc1ncc(C)c(-c2c[nH]c3c(NC(=O)[C@H]4C[C@H](OC)CN4C4CCN(C)CC4)cccc23)n1 [Example 13, (2R,4S)-4-methoxy-N-(3-(2-((3-methoxy-1-methyl-1H-pyrazol-4-yl)amino)-5-methylpyrimidin-4-yl)-1H-indol-7-yl)-1-(1-methylpiperidin-4-yl)pyrrolidine-2-carboxamide]
6620 nM | 41 nM | COc1nn(C)cc1Nc1ncc(C)c(-c2c[nH]c3c(NC(=O)[C@H]4C[C@H](F)CN4C4CCN(C)CC4)cccc23)n1 [Example 14, (2R,4S)-4-fluoro-N-(3-(2-((3-methoxy-1-methyl-1H-pyrazol-4-yl)amino)-5-methylpyrimidin-4-yl)-1H-indol-7-yl)-1-(1-methylpiperidin-4-yl)pyrrolidine-2-carboxamide]
3640 nM | 27 nM | COc1nn(C)cc1Nc1ncc(Cl)c(-c2c[nH]c3c(NC(=O)[C@H]4CCCN4C4CCN(C)CC4)cccc23)n1 [Example 15, (R)-N-(3-(5-chloro-2-((3-methoxy-1-methyl-1H-pyrazol-4-yl)amino)pyrimidin-4-yl)-1H-indol-7-yl)-1-(1-methylpiperidin-4-yl)pyrrolidine-2-carboxamide]
3340 nM | 40 nM | COc1nn(C)cc1Nc1ncc(C)c(-c2c[nH]c3c(NC(=O)[C@H]4CC(F)(F)CN4C4CCN(C)CC4)cccc23)n1 [Example 16, (R)-4,4-difluoro-N-(3-(2-((3-methoxy-1-methyl-1H-pyrazol-4-yl)amino)-5-methylpyrimidin-4-yl)-1H-indol-7-yl)-1-(1-methylpiperidin-4-yl)pyrrolidine-2-carboxamide]
7280 nM | 46 nM | COc1nn(C)cc1Nc1ncc(F)c(-c2c[nH]c3c(NC(=O)[C@H]4CCCN4[C@@H]4CCNC4)cccc23)n1 [Example 22, (2R,3′R)-N-(3-(5-fluoro-2-((3-methoxy-1-methyl-1H-pyrazol-4-yl)amino)pyrimidin-4-yl)-1H-indol-7-yl)-[1,3′-bipyrrolidine]-2-carboxamide]
5370 nM | 59 nM | COc1nn(C)cc1Nc1ncc(F)c(-c2c[nH]c3c(NC(=O)[C@H]4CCCN4[C@H]4CCNC4)cccc23)n1 [Example 23, (2R,3′S)-N-(3-(5-fluoro-2-((3-methoxy-1-methyl-1H-pyrazol-4-yl)amino)pyrimidin-4-yl)-1H-indol-7-yl)-[1,3′-bipyrrolidine]-2-carboxamide]
14600 nM | 40 nM | COc1nn(C)cc1Nc1ncc(F)c(-c2c[nH]c3c(NC(=O)[C@H]4CCCN4[C@@H]4CCN(C)C4)cccc23)n1 [Example 24, (2R,3′R)-N-(3-(5-fluoro-2-((3-methoxy-1-methyl-1H-pyrazol-4-yl)amino)pyrimidin-4-yl)-1H-indol-7-yl)-1′-methyl-[1,3′-bipyrrolidine]-2-carboxamide]

Second part, the compound before the results:

SMILES | IC50 (JAK2) | IC50 (JAK1)
COc1nn(C)cc1Nc1nccc(-c2c[nH]c3c(NC(=O)[C@H]4C[C@H](F)CN4[C@@H]4CCNC4)cccc23)n1 (single isomer, unassigned) [Example 18] | 10200 nM | 108 nM
COc1nn(C)cc1Nc1nccc(-c2c[nH]c3c(NC(=O)[C@H]4C[C@H](F)CN4[C@H]4CCNC4)cccc23)n1 (single isomer, unassigned) [Example 19] | 15500 nM | 368 nM
COc1nn(C)cc1Nc1nccc(-c2c[nH]c3c(NC(=O)[C@H]4C[C@H](F)CN4[C@@H]4CCN(C)C4)cccc23)n1 (single isomer, unassigned) [Example 20] | 21500 nM | 120 nM
COc1nn(C)cc1Nc1nccc(-c2c[nH]c3c(NC(=O)[C@H]4C[C@H](F)CN4[C@H]4CCN(C)C4)cccc23)n1 (single isomer, unassigned) [Example 21] | > 30000 nM | 262 nM
COc1nn(C)cc1Nc1ncc(F)c(-c2c[nH]c3c(NC(=O)[C@@H]4CCCN4S(C)(=O)=O)cccc23)n1 [Example 1, (S)—N-(3-(5-fluoro-2-((3-methoxy-1-methyl-1H-pyrazol-4-yl)amino)pyrimidin-4-yl)-1H-indol-7-yl)-1-(methanesulfonyl)pyrrolidine-2-carboxamide] | 2820 nM | 73 nM
CCS(=O)(=O)N1CCC[C@H]1C(=O)Nc1cccc2c(-c3nc(Nc4cn(C)nc4OC)ncc3F)c[nH]c12 [Example 2, (S)-N-(3-(5-fluoro-2-((3-methoxy-1-methyl-1H-pyrazol-4-yl)amino)pyrimidin-4-yl)-1H-indol-7-yl)-1-(ethanesulfonyl)pyrrolidine-2-carboxamide] | 1850 nM | 137 nM
COc1nn(C)cc1Nc1ncc(C)c(-c2c[nH]c3c(NC(=O)[C@@H]4CCCN4S(C)(=O)=O)cccc23)n1 [Example 3, (S)-N-(3-(2-((3-methoxy-1-methyl-1H-pyrazol-4-yl)amino)-5-methylpyrimidin-4-yl)-1H-indol-7-yl)-1-(methanesulfonyl)pyrrolidine-2-carboxamide] | 2210 nM | 70 nM
COc1nn(C)cc1Nc1ncc(Cl)c(-c2c[nH]c3c(NC(=O)[C@@H]4CCCN4S(C)(=O)=O)cccc23)n1 [Example 4, (S)-N-(3-(5-chloro-2-((3-methoxy-1-methyl-1H-pyrazol-4-yl)amino)pyrimidin-4-yl)-1H-indol-7-yl)-1-(methanesulfonyl)pyrrolidine-2-carboxamide] | 652 nM | 53 nM
COc1nn(C)cc1Nc1ncc(F)c(-c2c[nH]c3c(NC(=O)[C@H]4C[C@H](F)CN4C4CCNCC4)cccc23)n1 [Example 6, (2R,4S)-4-fluoro-N-(3-(5-fluoro-2-((3-methoxy-1-methyl-1H-pyrazol-4-yl)amino)pyrimidin-4-yl)-1H-indol-7-yl)-1-(piperidin-4-yl)pyrrolidine-2-carboxamide] | 4000 nM | 68 nM
COc1nn(C)cc1Nc1ncc(F)c(-c2c[nH]c3c(NC(=O)[C@H]4C[C@@H](F)CN4C4CCNCC4)cccc23)n1 [Example 7, (2R,4R)-4-fluoro-N-(3-(5-fluoro-2-((3-methoxy-1-methyl-1H-pyrazol-4-yl)amino)pyrimidin-4-yl)-1H-indol-7-yl)-1-(piperidin-4-yl)pyrrolidine-2-carboxamide] | 4410 nM | 152 nM
COc1nn(C)cc1Nc1ncc(F)c(-c2c[nH]c3c(NC(=O)[C@H]4C[C@@H](OC)CN4C4CCNCC4)cccc23)n1 [Example 8, (2R,4R)-N-(3-(5-fluoro-2-((3-methoxy-1-methyl-1H-pyrazol-4-yl)amino)pyrimidin-4-yl)-1H-indol-7-yl)-4-methoxy-1-(piperidin-4-yl)pyrrolidine-2-carboxamide] | 10500 nM | 1170 nM
COc1nn(C)cc1Nc1ncc(F)c(-c2c[nH]c3c(NC(=O)[C@H]4C[C@H](OC)CN4C4CCNCC4)cccc23)n1 [Example 9, (2R,4S)-N-(3-(5-fluoro-2-((3-methoxy-1-methyl-1H-pyrazol-4-yl)amino)pyrimidin-4-yl)-1H-indol-7-yl)-4-methoxy-1-(piperidin-4-yl)pyrrolidine-2-carboxamide] | 5000 nM | 51 nM
CCO[C@H]1C[C@H](C(=O)Nc2cccc3c(-c4nc(Nc5cn(C)nc5OC)ncc4C)c[nH]c23)N(C2CCN(C)CC2)C1 [Example 12, (2R,4S)-4-ethoxy-N-(3-(2-((3-methoxy-1-methyl-1H-pyrazol-4-yl)amino)-5-methylpyrimidin-4-yl)-1H-indol-7-yl)-1-(1-methylpiperidin-4-yl)pyrrolidine-2-carboxamide] | 12000 nM | 103 nM
COc1nn(C)cc1Nc1nccc(-c2c[nH]c3c(NC(=O)[C@H]4CC(F)(F)CN4C4CCN(C)CC4)cccc23)n1 [Example 17, (R)-4,4-difluoro-N-(3-(2-((3-methoxy-1-methyl-1H-pyrazol-4-yl)amino)pyrimidin-4-yl)-1H-indol-7-yl)-1-(1-methylpiperidin-4-yl)pyrrolidine-2-carboxamide] | 10500 nM | 216 nM
